EC50 data for 24 molecules are collected here from US20250114338A1, “TETRAHYDRO-PYRIDO[3,4-b]INDOLE ESTROGEN RECEPTOR MODULATORS AND USES THEREOF” (Genentech, Inc., priority 2014, published 2025).

In this experiment the test system is ER-alpha MCF7. Briefly: ER-alpha MCF7 HCS EC50; stated as measured by in vitro cell proliferation assays of Examples 902 and 903. The format is cell-based. The settings on record: Homo sapiens, MCF7, MCF7 cells; Table 2. In outline: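 MCF7 cells seeded 1000-2000 cells/well for 16 h, then treated with nine-point 1:2 DMSO dilution series in quadruplicate at 37 °C, 5% CO2 for 4 days. Viable cells quantified by CellTiter-Glo ATP luminescence; EC50 calculated. Controls: fulvestrant at final 100 nM, DMSO 0.2% v/v.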
As for `C[C@@H]1Cc2c([nH]c3ccccc23)[C@@H](c2ccc(OC3CN(CCCF)C3)cc2)N1S(C)(=O)=O` [Example 330, (1R,3R)-1-[4-[1-(3-fluoropropyl)azetidin-3-yl]oxyphenyl]-3-methyl-2-methylsulfonyl-1,3,4,9-tetrahydropyrido[3,4-b]indole], the EC50 came to 2 nM.
With `C[C@@H]1Cc2c([nH]c3ccccc23)[C@@H](c2c(F)cc(OC3CN(CCCF)C3)cc2F)N1C(=O)C(C)(C)F` [Example 222, 1-[(1R,3R)-1-[2,6-difluoro-4-[1-(3-fluoropropyl)azetidin-3-yl]oxy-phenyl]-3-methyl-1,3,4,9-tetrahydropyrido[3,4-b]indol-2-yl]-2-fluoro-2-methyl-propan-1-one] the figure was 0.4 nM; with `C[C@H]1Cc2c([nH]c3cc(F)ccc23)[C@H](c2c(F)cc(NC3CN(CCCF)C3)cc2F)N1CC(F)(F)CO` [Example 426, 3-((1S,3S)-1-(2,6-difluoro-4-((1-(3-fluoropropyl)azetidin-3-yl)amino)phenyl)-7-fluoro-3-methyl-3,4-dihydro-1H-pyrido[3,4-b]indol-2(9H)-yl)-2,2-difluoropropan-1-ol], 6.38 nM.
In the case of `C[C@@H]1Cc2c([nH]c3cc(F)ccc23)[C@@H](c2c(F)cc(NC3CN(CCCF)C3)cc2F)N1C[C@](C)(F)CO` [Example 414, (S)-3-((1R,3R)-1-(2,6-difluoro-4-((1-(3-fluoropropyl)azetidin-3-yl)amino)phenyl)-7-fluoro-3-methyl-3,4-dihydro-1H-pyrido[3,4-b]indol-2(9H)-yl)-2-fluoro-2-methylpropan-1-ol], the EC50 is 0.12 nM.
With `C[C@@H]1Cc2c([nH]c3cccc(F)c23)[C@@H](c2c(F)cc(NC3CN(CCCF)C3)cc2F)N1C[C@@](C)(F)CO` [Example 400, (R)-3-((1R,3R)-1-(2,6-difluoro-4-((1-(3-fluoropropyl)azetidin-3-yl)amino)phenyl)-5-fluoro-3-methyl-3,4-dihydro-1H-pyrido[3,4-b]indol-2(9H)-yl)-2-fluoro-2-methylpropan-1-ol] the figure was 0.023 nM.
Consider `CC(CO)C(=O)N1[C@H](c2c(F)cc(OCCN3CC(CF)C3)cc2F)c2[nH]c3ccccc3c2C[C@H]1C` (stereo partly drawn) [Example 181, 1-((1R,3R)-1-(2,6-difluoro-4-(2-(3-(fluoromethyl)azetidin-1-yl)ethoxy)phenyl)-3-methyl-3,4-dihydro-1H-pyrido[3,4-b]indol-2(9H)-yl)-3-hydroxy-2-methylpropan-1-one], for which the concentration giving a half-maximal response (EC50) is 4 nM.
With `C[C@@H]1Cc2c([nH]c3ccccc23)[C@@H](c2ccc(OCCN3CC(CF)C3)cc2)N1C[C@@](C)(F)CO` [Example 275, (R)-2-fluoro-3-((1R,3R)-1-(4-(2-(3-(fluoromethyl)azetidin-1-yl)ethoxy)phenyl)-3-methyl-1,3,4,9-tetrahydro-2H-pyrido[3,4-b]indol-2-yl)-2-methylpropan-1-ol] the figure was 0.166 nM.
With `CC(C)[S@+]([O-])N1[C@H](c2ccc(OCCN3CC(CF)C3)cc2)c2[nH]c3ccccc3c2C[C@H]1C` [Example 332, (1R,3R)-1-(4-(2-(3-(fluoromethyl)azetidin-1-yl)ethoxy)phenyl)-2-((S)-isopropylsulfinyl)-3-methyl-2,3,4,9-tetrahydro-1H-pyrido[3,4-b]indole] the figure was 8 nM; with `C[C@@H]1Cc2c([nH]c3ccccc23)[C@@H](c2c(F)cc(NC3CN(CCCF)C3)cc2F)N1CC(F)(F)CO` [Example 340, 3-[(1R,3R)-1-[2,6-difluoro-4-[[1-(3-fluoropropyl)azetidin-3-yl]amino]phenyl]-3-methyl-1,3,4,9-tetrahydropyrido[3,4-b]indol-2-yl]-2,2-difluoro-propan-1-ol], 0.203 nM; with `C[C@@H]1Cc2c([nH]c3ccccc23)[C@@H](c2c(F)cc(OC3CN(CCCF)C3)cc2F)N1C[C@](C)(F)CO` [Example 233, 3-((1R,3R)-1-(2,6-difluoro-4-((1-(3-fluoropropyl)azetidin-3-yl)oxy)phenyl)-3-methyl-1,3,4,9-tetrahydro-2H-pyrido[3,4-b]indol-2-yl)-2-fluoro-2-methylpropan-1-ol], 0.133 nM.
For the molecule `CC1CN(CCOc2cc(F)c([C@@H]3c4[nH]c5ccccc5c4C[C@@H](C)N3CC(C)(C)F)c(F)c2)C1` [Example 140, (1R,3R)-1-[2,6-difluoro-4-[2-(3-methylazetidin-1-yl)ethoxy]phenyl]-2-(2-fluoro-2-methyl-propyl)-3-methyl-1,3,4,9-tetrahydropyrido[3,4-b]indole], the EC50 was 0.13 nM.
As for `C[C@H]1CCN(CCOc2cc(F)c([C@@H]3c4[nH]c5ccccc5c4C[C@@H](C)N3CC(C)(C)F)c(F)c2)C1` [Example 150, (1R,3R)-1-[2,6-difluoro-4-[2-[(3S)-3-methylpyrrolidin-1-yl]ethoxy]phenyl]-2-(2-fluoro-2-methyl-propyl)-3-methyl-1,3,4,9-tetrahydropyrido[3,4-b]indole], the EC50 amounted to 0.483 nM.
`C[C@@H]1Cc2c([nH]c3ccccc23)[C@@H](c2c(F)cc(OCCN3CC(CF)C3)cc2F)N1C[C@@](C)(F)CO` [Example 155, (2R)-3-[(1R,3R)-1-[2,6-difluoro-4-[2-[3-(fluoromethyl)azetidin-1-yl]ethoxy]phenyl]-3-methyl-1,3,4,9-tetrahydropyrido[3,4-b]indol-2-yl]-2-fluoro-2-methyl-propan-1-ol]: the EC50 worked out at 0.0799 nM.
Take `C[C@H]1Cc2c([nH]c3ccc(F)cc23)[C@H](c2c(F)cc(OC3CN(CCCF)C3)cc2F)N1CC(F)F` [Example 386, (1S,3S)-1-(2,6-difluoro-4-((1-(3-fluoropropyl)azetidin-3-yl)oxy)phenyl)-2-(2,2-difluoroethyl)-6-fluoro-3-methyl-2,3,4,9-tetrahydro-1H-pyrido[3,4-b]indole]: the EC50 stood at 23 nM.
With `C[C@@H]1Cc2c([nH]c3ccccc23)[C@@H](c2c(F)cc(OCCN3CC(CF)C3)cc2F)N1CC(F)(F)F` [Example 174, (1R,3R)-1-[2,6-difluoro-4-[2-[3-(fluoromethyl)azetidin-1-yl]ethoxy]phenyl]-3-methyl-2-(2,2,2-trifluoroethyl)-1,3,4,9-tetrahydropyrido[3,4-b]indole] the figure was 0.285 nM.
As for `CC(CN1[C@H](c2c(F)cc(OC3CN(CCCF)C3)cc2F)c2[nH]c3ccccc3c2C[C@H]1C)C(=O)O` (stereo in doubt) [Example 350, 3-[1-[2,6-difluoro-4-[1-(3-fluoropropyl)azetidin-3-yl]oxy-phenyl]-3-methyl-1,3,4,9-tetrahydropyrido[3,4-b]indol-2-yl]-2-methyl-propanoic acid], the EC50 is 14 nM.
Turning to `C[C@@H]1Cc2c([nH]c3cc(F)ccc23)[C@@H](c2c(F)cc(OC3CN(CCCF)C3)cc2F)N1CC(C)(C)F` [Example 248, (1R,3R)-1-(2,6-difluoro-4-((1-(3-fluoropropyl)azetidin-3-yl)oxy)phenyl)-7-fluoro-2-(2-fluoro-2-methylpropyl)-3-methyl-2,3,4,9-tetrahydro-1H-pyrido[3,4-b]indole], the EC50 came to 0.518 nM.
As for `C[C@@H]1Cc2c([nH]c3ccccc23)[C@@H](c2ccc(OCCN3CC(CF)C3)cc2F)N1C(=O)C(C)(C)F` [Example 230, 2-fluoro-1-[(1R,3R)-1-[2-fluoro-4-[2-[3-(fluoromethyl)azetidin-1-yl]ethoxy]phenyl]-3-methyl-1,3,4,9-tetrahydropyrido[3,4-b]indol-2-yl]-2-methyl-propan-1-one], the EC50 came out at 0.068 nM.
On to `C[C@H](CN1[C@H](c2c(F)cc(OC3CN(CCCF)C3)cc2F)c2[nH]c3ccccc3c2C[C@H]1C)C(=O)O` [Example 348, (R)-3-((1R,3R)-1-(2,6-difluoro-4-((1-(3-fluoropropyl)azetidin-3-yl)oxy)phenyl)-3-methyl-1,3,4,9-tetrahydro-2H-pyrido[3,4-b]indol-2-yl)-2-methylpropanoic acid], for which the half-maximal effective concentration (EC50) amounted to 1 nM.
For `C[C@@H]1Cc2c([nH]c3ccccc23)[C@@H](c2c(F)cc(OC3CN(CCCF)C3)cc2F)N1CC(C)(C)C#N` [Example 316, 3-[(1R,3R)-1-[2,6-difluoro-4-[1-(3-fluoropropyl)azetidin-3-yl]oxy-phenyl]-3-methyl-1,3,4,9-tetrahydropyrido[3,4-b]indol-2-yl]-2,2-dimethyl-propanenitrile] the value was 0.0724 nM; for `C[C@@H]1Cc2c([nH]c3ccccc23)[C@@H](c2c(F)cc(NC3CN(CCCF)C3)cc2F)N1C[C@H](C)C(=O)O` [Example 367, (2S)-3-[(1R,3R)-1-[2,6-difluoro-4-[[1-(3-fluoropropyl)azetidin-3-yl]amino]phenyl]-3-methyl-1,3,4,9-tetrahydropyrido[3,4-b]indol-2-yl]-2-methyl-propanoic acid], 8 nM; for `C[C@@H]1Cc2c([nH]c3cc(F)ccc23)[C@@H](c2c(F)cc(NC3CN(CCCF)C3)cc2F)N1C[C@@](C)(F)CO` [Example 413, (R)-3-((1R,3R)-1-(2,6-difluoro-4-((1-(3-fluoropropyl)azetidin-3-yl)amino)phenyl)-7-fluoro-3-methyl-3,4-dihydro-1H-pyrido[3,4-b]indol-2(9H)-yl)-2-fluoro-2-methylpropan-1-ol], 0.018 nM.
For `C[C@@H]1Cc2c([nH]c3ccccc23)[C@@H](c2ccc(OCCN3CC[C@@H](CF)C3)cc2)N1CC(C)(C)F` [Example 250, (1R,3R)-2-(2-fluoro-2-methyl-propyl)-1-[4-[2-[(3R)-3-(fluoromethyl)pyrrolidin-1-yl]ethoxy]phenyl]-3-methyl-1,3,4,9-tetrahydropyrido[3,4-b]indole], the EC50 worked out at 0.275 nM.
For the molecule `CC(CN1C(C)Cc2c([nH]c3ccccc23)C1c1c(F)cc(OC2CN(CCCF)C2)cc1F)C(=O)O` (stereo not drawn) [Example 351, 3-[1-[2,6-difluoro-4-[1-(3-fluoropropyl)azetidin-3-yl]oxy-phenyl]-3-methyl-1,3,4,9-tetrahydropyrido[3,4-b]indol-2-yl]-2-methyl-propanoic acid], the EC50 amounted to 33 nM.
